≈ marks a conversion by molar mass, not a printed value. Like-named read-outs stand apart in the source and are kept apart here.
Assays:
Test in all cases: MIC determination
Assay type in all cases: cell-based
S. aureus ATCC 29213 = details: Staphylococcus aureus
P. aeruginosa ATCC 27853 = details: Pseudomonas aeruginosa, ATCC27853
[1] = tested on: S. aureus MP-549 msr(a) USA 300; details: Staphylococcus aureus, USA300, S. aureus MP-549 msr(a) USA 300
E. coli MP-9 ΔTolC = details: Escherichia coli
[2] = tested on: S. aureus MP-513 clinical cErm; details: Staphylococcus aureus
E. coli ATCC 25922 = details: Escherichia coli
K. pneumoniae ATCC 10031 = details: Klebsiella pneumoniae, ATCC10031
S. aureus BAA 977 iErmA = details: Staphylococcus aureus, BAA977
[3] = tested on: S. aureus Micromyx USA 300; details: Staphylococcus aureus, USA300; S. aureus Micromyx USA 300; read-out: MIC
[4] = tested on: S. pyogenes MMX 946 Macrolide-Resistant; details: Streptococcus pyogenes; S. pyogenes MMX 946 Macrolide-Resistant (MacRes); read-out: MIC
[5] = tested on: E. coli MP-74 LptD mutant; details: Escherichia coli
H. influenzae ATCC 49247 = details: Haemophilus influenzae, ATCC49247; H. influenzae ATCC 49247; read-out: MIC
[6] = tested on: S. pneumoniae MMX 3031 cMefA; details: Streptococcus pneumoniae, MMX3031CMEFA
[7] = tested on: S. pneumoniae MMX 3028 cErmB; details: Streptococcus pneumoniae, MMX3028CERMB
E. coli MMX 0121 ΔTolC = details: Escherichia coli
[8] = tested on: E. faecalis MMX 847 Macrolide-Resistant; details: Enterococcus faecalis
S. aureus MMX 3035 cErmA = details: Staphylococcus aureus, MMX3035CERMA; S. aureus MMX 3035 cErmA; read-out: MIC
[9] = tested on: P. aeruginosa MMX 3476 Δmex; details: Pseudomonas aeruginosa
S. pneumoniae ATCC 49619 = details: Streptococcus pneumoniae, ATCC49619; S. pneumoniae ATCC 49619; read-out: MIC
C. difficile BAA 1805 = details: Clostridioides difficile, BAA1805
S. pyogenes ATCC 19615 = details: Streptococcus pyogenes, ATCC19615; S. pyogenes ATCC 19615; read-out: MIC
E. faecalis ATCC 29212 = details: Enterococcus faecalis
[10] = tested on: E. coli MMX TolC parent strain; details: Escherichia coli
[11] = tested on: P. aeruginosa MMX Mex parent strain; details: Pseudomonas aeruginosa
B. fragilis ATCC 25285 = details: Bacteroides fragilis, ATCC25285; B. fragilis ATCC 25285; read-out: MIC
[12] = ATCC29213, S. aureus ATCC 29213, read-out: MIC
[13] = P. aeruginosa ATCC 27853, read-out: MIC
[14] = S. pneumoniae MMX 3028 cErmB, read-out: MIC
[15] = E. faecalis MMX 847 Macrolide-Resistant (MacRes), read-out: MIC
[16] = ATCC25922, E. coli ATCC 25922, read-out: MIC
[17] = K. pneumoniae ATCC 10031, read-out: MIC
[18] = C. difficile BAA 1805, read-out: MIC
[19] = E. coli MMX TolC parent strain, read-out: MIC
[20] = P. aeruginosa MMX Mex parent strain, read-out: MIC

Row | Compound | MIC (P. aeruginosa ATCC 27853) [µg/mL] | MIC [1] [µg/mL] | MIC (E. coli MP-9 ΔTolC) [µg/mL] | MIC [2] [µg/mL] | MIC (E. coli ATCC 25922; ATCC25922) [µg/mL] | MIC (K. pneumoniae ATCC 10031) [µg/mL] | MIC (S. aureus BAA 977 iErmA) [µg/mL] | MIC (S. aureus ATCC 29213; [12]) [µg/mL] | also measured
1 | CCNC(=O)N1CCO[C@@H]2[C@H](CN[C@@H]2C(=O)N[C@H]([C@H](C)Cl)[C@H]2OC(SC)[C@H](O)C(O)C2O)C1 (some centres unmarked) [FSA-503004] | > 64 | > 64 | > 64 | > 64 | > 64 | > 64 | > 64 |  | MIC (S. aureus ATCC 29213; ATCC29213): > 64 µg/mL
2 | CSC1O[C@H]([C@H](NC(=O)[C@H]2NC[C@@H]3CN(C(=N)N)CCO[C@H]32)[C@H](C)Cl)C(O)C(O)[C@H]1O (some centres unmarked) [FSA-504057] | > 64 |  | > 64 | > 64 | > 64 | > 64 |  |  | MIC (S. aureus ATCC 29213; ATCC29213): > 64 µg/mL
3 | CSC1O[C@H]([C@H](NC(=O)[C@H]2NC[C@@H]3C[C@@H](c4ccc(F)cc4)CCO[C@H]32)[C@H](C)Cl)C(O)[C@@H](O)[C@H]1O (some centres unmarked) [FSA-507061] |  | 0.125 (≈ 0.234 µM) | 4 (≈ 7.5 µM) |  |  |  | 0.25 (≈ 0.469 µM) | 0.12 (≈ 0.225 µM) | MIC (P. aeruginosa ATCC 27853; [13]): > 64 µg/mL; MIC [3]: ≤ 0.06 µg/mL; MIC [4]: 4 µg/mL (≈ 7.5 µM); MIC [5]: 8 µg/mL (≈ 15 µM); MIC (H. influenzae ATCC 49247): 4 µg/mL (≈ 7.5 µM); MIC [6]: ≤ 0.06 µg/mL; MIC [7, 14]: 4 µg/mL (≈ 7.5 µM); MIC (E. coli MMX 0121 ΔTolC): 2 µg/mL (≈ 3.75 µM); MIC [8, 15]: 32 µg/mL (≈ 60 µM); MIC (S. aureus MMX 3035 cErmA): 64 µg/mL (≈ 120 µM); MIC [9]: > 64 µg/mL; MIC (E. coli ATCC 25922; [16]): 64 µg/mL (≈ 120 µM); MIC (K. pneumoniae ATCC 10031; [17]): 16 µg/mL (≈ 30 µM); MIC (S. pneumoniae ATCC 49619): ≤ 0.06 µg/mL; MIC (C. difficile BAA 1805; [18]): 2 µg/mL (≈ 3.75 µM); MIC (S. pyogenes ATCC 19615): ≤ 0.06 µg/mL; MIC (E. faecalis ATCC 29212; ATCC29212, read-out: MIC): ≤ 0.06 µg/mL; MIC [10, 19]: > 64 µg/mL; MIC [11, 20]: > 64 µg/mL; MIC (B. fragilis ATCC 25285): 64 µg/mL (≈ 120 µM)
4 | CSC1O[C@H]([C@H](NC(=O)[C@H]2NC[C@@H]3CN(CC(=O)O)CCO[C@H]32)[C@H](C)Cl)C(O)C(O)[C@H]1O (some centres unmarked) [FSA-504063] | > 64 |  | > 64 | > 64 | > 64 | > 64 |  |  | MIC (S. aureus ATCC 29213; ATCC29213): > 64 µg/mL
5 | CSC1O[C@H]([C@H](NC(=O)[C@@H]2[C@@H]3OCC=CC[C@H]3CN2C)[C@H](C)Sc2ccc(-c3cncnc3)cc2)C(O)[C@@H](O)[C@H]1O (some centres unmarked) [FSA-212034] | > 64 | 0.5 (≈ 0.829 µM) | 16 (≈ 26.5 µM) |  | > 64 |  | 0.25 (≈ 0.415 µM) | 0.25 (≈ 0.415 µM) | MIC [3]: 0.25 µg/mL (≈ 0.415 µM); MIC [4]: 2 µg/mL (≈ 3.32 µM); MIC (H. influenzae ATCC 49247): 4 µg/mL (≈ 6.64 µM); MIC [6]: ≤ 0.06 µg/mL; MIC [7, 14]: 4 µg/mL (≈ 6.64 µM); MIC (E. coli MMX 0121 ΔTolC): 1 µg/mL (≈ 1.66 µM); MIC [8]: > 64 µg/mL; MIC (S. aureus MMX 3035 cErmA): 32 µg/mL (≈ 53.1 µM); MIC [9]: > 64 µg/mL; MIC (K. pneumoniae ATCC 10031; [17]): 64 µg/mL (≈ 106 µM); MIC (S. pneumoniae ATCC 49619): ≤ 0.06 µg/mL; MIC (C. difficile BAA 1805): 0.5 µg/mL (≈ 0.829 µM); MIC (S. pyogenes ATCC 19615): ≤ 0.06 µg/mL; MIC (E. faecalis ATCC 29212; ATCC29212): 16 µg/mL (≈ 26.5 µM); MIC [10]: > 64 µg/mL; MIC [11]: > 64 µg/mL; MIC (B. fragilis ATCC 25285): 1 µg/mL (≈ 1.66 µM)
6 | CSC1O[C@H]([C@H](NC(=O)[C@H]2NC[C@@H]3CN(Cc4ccnc(N)c4)CCO[C@H]32)[C@H](C)Cl)C(O)C(O)[C@H]1O (some centres unmarked) [FSA-504849] | > 64 | 8 (≈ 14.6 µM) | > 64 | > 64 | > 64 | > 64 | 32 (≈ 58.6 µM) | 16 (≈ 29.3 µM) | 
7 | CSC1O[C@H]([C@H](NC(=O)[C@H]2NC[C@@H]3C[C@H]4C[C@H]4CO[C@H]32)[C@H](C)Cl)C(O)C(O)[C@H]1O (stereo in doubt) [FSA-507007] |  | 0.25 (≈ 0.554 µM) | 16 (≈ 35.5 µM) |  |  |  | 0.5 (≈ 1.11 µM) | 0.25 (≈ 0.554 µM) | MIC (P. aeruginosa ATCC 27853; [13]): > 64 µg/mL; MIC [3]: 0.12 µg/mL (≈ 0.266 µM); MIC [4]: 32 µg/mL (≈ 71 µM); MIC [5]: 16 µg/mL (≈ 35.5 µM); MIC (H. influenzae ATCC 49247): 2 µg/mL (≈ 4.43 µM); MIC [6]: 0.12 µg/mL (≈ 0.266 µM); MIC [7]: 64 µg/mL (≈ 142 µM); MIC (E. coli MMX 0121 ΔTolC): 8 µg/mL (≈ 17.7 µM); MIC [8, 15]: > 64 µg/mL; MIC (S. aureus MMX 3035 cErmA): > 64 µg/mL; MIC [9]: 64 µg/mL (≈ 142 µM); MIC (E. coli ATCC 25922; [16]): > 64 µg/mL; MIC (K. pneumoniae ATCC 10031; [17]): > 64 µg/mL; MIC (S. pneumoniae ATCC 49619): 0.12 µg/mL (≈ 0.266 µM); MIC (C. difficile BAA 1805; [18]): 4 µg/mL (≈ 8.87 µM); MIC (S. pyogenes ATCC 19615): ≤ 0.06 µg/mL; MIC (E. faecalis ATCC 29212; ATCC29212): 16 µg/mL (≈ 35.5 µM); MIC [10, 19]: > 64 µg/mL; MIC [11, 20]: > 64 µg/mL; MIC (B. fragilis ATCC 25285): 32 µg/mL (≈ 71 µM)
8 | CSC1O[C@H]([C@H](NC(=O)[C@H]2NC[C@@H]3CNCCO[C@H]32)[C@H](C)Cl)C(O)C(O)[C@H]1O (some centres unmarked) [FSA-503001] | > 64 | > 64 | > 64 | > 64 | > 64 | > 64 | > 64 | 64 (≈ 145 µM) | 
9 | CSC1O[C@H]([C@H](NC(=O)[C@H]2NC[C@@H]3CN(C)CCO[C@H]32)[C@H](C)Cl)C(O)C(O)[C@H]1O (some centres unmarked) [FSA-503002] | > 64 | > 64 | > 64 | > 64 | > 64 | > 64 | > 64 | 64 (≈ 141 µM) | 
10 | C=CCOC(=O)N1CCO[C@@H]2[C@H](CN[C@@H]2C(=O)N[C@H]([C@H](C)Cl)[C@H]2OC(SC)[C@H](O)[C@H](O)C2O)C1 (some centres unmarked) [FSA-503073] | > 64 | 32 (≈ 61.1 µM) | > 64 | > 64 | > 64 | > 64 | 64 (≈ 122 µM) | 64 (≈ 122 µM) | 
11 | CSC1O[C@H]([C@H](NC(=O)[C@H]2NC[C@@H]3CN(Cc4ccc(N)nc4)CCO[C@H]32)[C@H](C)Cl)C(O)[C@@H](O)[C@H]1O (some centres unmarked) [FSA-504050] | > 64 | 32 (≈ 58.6 µM) | > 64 | > 64 | > 64 | > 64 | 64 (≈ 117 µM) | 32 (≈ 58.6 µM) | 

— US11767341B2, “Lincosamide antibiotics and uses thereof” (President and Fellows of Harvard College, priority 2017, dated 2023)
